Entries after “also recorded” stand apart in the source; their conditions may differ.
Key:
HT22 cells [1] = experiment: Oxidative glutamate toxicity (MTT cell viability); assay type: cell-based; conditions: 5 mM glutamate, fisetin, 24 hr
Method: Cell viability was determined by a modified version of 3-(4,5-dimethylthiazol-2-yl)-2,5-diphenyl tetrazolium bromide (MTT) assay based on the standard procedure (Hansen M B et al. J. Immunol. Methods 119:203-210, 1989). Briefly, cells were seeded onto 96-well microtiter plates at a density of 5×10^3 cells per well. The next day, the medium was replaced with DMEM supplemented with 7.5% DFCS and the cells were treated with the different fisetin derivatives alone or in the presence of 5 mM glutamate. Twenty four hours later, the medium in each well was aspirated and replaced with fresh medium containing 2.5 μg/ml MTT. After 4 hours of incubation at 37° C., cells were solubilized with 100 μA of a solution containing 50% dimethylformamide and 20% SDS (pH 4.7). The absorbance at 570 nm was measured on the following day with a microplate reader (Molecular Devices). Results obtained from the MTT assay correlated directly with the extent of cell death as confirmed visually. Controls employing wells without cells were used to determine the effects of the agents upon the assay chemistry.
(§1) As shown in panel (A) of FIG. 3, HT22 cells were untreated (ct) or treated with 10 μM fisetin (fis) in the absence of presence of 5 mM glutamate for 24 hr and GSH was measured enzymatically and normalized to protein. As shown in panel (B) of FIG. 3, HT22 cells in 96-well plates were treated with 5 mM glutamate and the indicated concentrations of fisetin. MTT reduction was measured after 24 hr.

[2] = test system: human brain microvascular cells; experiment: Protein glycation in human brain microvascular cells exposed to glucose; assay type: cell-based; conditions: 1 μM fisetin
Method: In reference to FIG. 1, BSA was incubated with either 100 mM glucose (G) or 100 mM methylglyoxal (MG) for 14 days at 37° C. plus or minus 100 μM fisetin. The BSA was dialyzed vs. PBS run on SDS-PAGE and blotted with anti-carboxymethyl lysine (CML) (a glucose AGE) or anti-MG adducts from Dr. Brownlee. […] In FIG. 1, panel B, anti-MG only reacts with MG treated BSA and also causes protein polymerization. In FIG. 1, panel C, co-incubation with fisetin results in inhibition of glucose glycation in 2 assays, Western blotting with a-CML (BL, hatched bars) and a fluorescence assay for protein glycation (FL, clear bars). In FIG. 1, panel D, fisetin inhibited protein glycation caused by high glucose exposure of human brain microvascular cells. Cells were exposed to either 5 mM (−Glu) or 25 mM (+Glu) glucose for 5 days plus (F) or minus (C) 1 μM fisetin. Cells were then harvested and blotted with either anti-CML or MG antisera.

HT-22 nerve cells = HT-22 nerve cells exposed to glutamate: MG adducts and viability; assay type: cell-based; conditions: 5 mM glutamate, 2 μM fisetin
Method: HT-22 nerve cells were exposed to 0.5 mM glutamate and Glo-1 expression monitored at 8 and 24 hrs. In panel (B) of FIG. 2, Fisetin is shown to prevent both cell death and protein glycation. HT-22 cells were exposed to 5 mM glutamate in the presence or absence of 2 μM fisetin. MG adducts were determined by Western blotting 8 hrs after glutamate exposure and viability after 24 hrs. Actin is at the bottom of the blot. In panel (C) of FIG. 2, the Glo-1 inhibitor s-p-bromobenzylglutathione […] is shown to potentiate cell death. HT-22 cells were exposed to 1 mM glutamate plus or minus 10 or 20 μM BBGD.

HT22 cells [3] = experiment: GSH level in HT22 cells; assay type: cell-based; conditions: 10 μM fisetin, absence or presence of 5 mM glutamate, 24 hr
Method: as §1

Akita mice [4] = experiment: Kidney hypertrophy (kidney weight) in Akita mice; assay type: in vivo; conditions: fisetin 0.05% in diet for 18 weeks
Method: Male Akita mice were fed control diet or fisetin (0.05%) for 18 weeks beginning at 6 weeks of age. Kidney hypertrophy was assessed by weighing the kidneys. Kidney function was assessed by measuring the albumin/creatinine ratio in the urine. Fisetin reduced diabetes-induced renal hypertrophy and proteinuria. All data are mean±SD of N=5-7/group.

Akita mice [5] = experiment: Thermal latency response of hind paw in Akita mice; assay type: in vivo; conditions: fisetin 0.05% in diet for 18 weeks
Method: Mice were placed in an observation chamber on the surface (floor temperature 30° C.) of a modified Hargreaves apparatus (UARD, San Diego, Calif.) and allowed to acclimate for 5 min. For measurement of thermal response latency, a heat source that warmed the chamber surface at approximately 1° C./sec was moved underneath the hind paw and the time to foot withdrawal recorded automatically. The procedure was repeated 4 times on the same paw at 5 min intervals and the median of values 2-4 used to represent the thermal response latency.
(§2) Male Akita mice were fed control diet or fisetin (0.05%) for 18 weeks beginning at 6 weeks of age. Large fiber function was tested by measuring motor nerve conduction velocity and small fiber function by paw withdrawal to noxious heat. Diabetes-induced MNCV slowing and thermal hypoalgesia were ameliorated by fisetin treatment. All data are mean±SD of N=5-7/group. […] P<0.05.

Akita mice [6] = experiment: Motor nerve conduction velocity in Akita mice; assay type: in vivo; conditions: fisetin 0.05% in diet for 18 weeks
Method: Conduction velocity of large myelinated motor fibers in the sciatic:tibial nerve system was measured in mice under isoflurane anesthesia with nerve temperature maintained at 37° C., as previously described (Calcutt et al. Diabetes 39:663-666, 1990). Briefly, stimulating electrodes were placed at the left sciatic notch and Achilles tendon and recording electrodes placed in the interosseus muscles of the ipsilateral hind paw. Electromyograms were recorded on a storage oscilloscope after stimulation at each site using single square waves (5 v, 0.05 ms) and motor nerve conduction velocity (MNCV) calculated using the peak to peak distance of the resulting M waves and the distance between the two stimulation sites. The median of 3 separate MNCV measurements was used to represent values for each mouse.
as §2

## O=c1c(O)c(-c2ccc(O)c(O)c2)oc2cc(O)ccc12 [fisetin, 2-(3,4-dihydroxyphenyl)-3,7-dihydroxychromen-4-one]
HT22 cells [1]
  glutamate toxicity (MTT reduction): Reduction
[2]; 25 mM glucose 5 days
  increase of CML and MG adducts caused by high glucose: blocked, at least in part
[2]; low glucose medium (5 mM)
  endogenous glycation of some proteins: inhibits
HT-22 nerve cells; Western blotting 8 hrs after glutamate
  protein glycation (MG adducts): prevent
HT-22 nerve cells; viability after 24 hrs
  cell death: prevent
HT22 cells [3]
  GSH: Upregulation
Akita mice [4]
  diabetes-induced renal hypertrophy (kidney weight): greatly reduced
Akita mice [4]; listed as Fisetin
  diabetes-induced renal hypertrophy (kidney weight): reduced
Akita mice [5]
  thermal hypoalgesia (hind paw thermal latency): ameliorated; also recorded: prevented
Akita mice [6]
  diabetes-induced MNCV slowing: ameliorated; also recorded: prevented
